PubChem BioAssay AID248 (DTP/NCI, 2004)
Values joined by “and” are separate entries in the source; they are usually repeats but may differ in a detail not shown here. Equal values may be shown once. Toxic doses and inconclusive results are not listed. Cut-off read from the data, not from the text of the source: active = T/C of 150% or more; inactive = T/C below 125%.

Tested on: L1210 leukemia ip in BDF1 mice, survival T/C
Assay: NCI In Vivo Anticancer Drug Screen. Data for tumor model L1210 Leukemia (intraperitoneal) in B6D2F1 (BDF1) mice
Settings: endpoint: mean survival time, higher = longer survival
Summary of the method: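 Tumor was transplanted into mice, which were then dosed with test compound or vehicle alone. Survival was recorded for each group, and the treated figure was expressed relative to the control figure.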

[1] = dose: 100.0 mg/kg/injection, schedule: Q01DX001 (ip), vehicle: saline
[2] = dose: 200.0 mg/kg/injection, schedule: Q01DX001 (ip), vehicle: saline
[3] = dose: 100.0 mg/kg/injection, schedule: Q04DX003 (ip), vehicle: saline with Tween-80
[4] = dose: 200.0 mg/kg/injection, schedule: Q04DX003 (ip), vehicle: saline with Tween-80
[5] = dose: 400.0 mg/kg/injection, schedule: Q04DX003 (ip), vehicle: saline with Tween-80
[6] = dose: 100.0 mg/kg/injection, schedule: Q01DX009 (ip), vehicle: saline with Tween-80
[7] = dose: 200.0 mg/kg/injection, schedule: Q01DX009 (ip), vehicle: saline with Tween-80
[8] = dose: 400.0 mg/kg/injection, schedule: Q01DX009 (ip), vehicle: saline with Tween-80

Measured: T/C

CC1=[N+](CCS(C)(=O)=O)C(C)CCC1 (stereo unspecified)
inactive: dose: 50.0 mg/kg/injection, schedule: Q01DX001 (ip), vehicle: saline 115 % of control | [1] 110 % of control | [2] 106 % of control | dose: 400.0 mg/kg/injection, schedule: Q01DX001 (ip), vehicle: saline 106 % of control

CSC1=Nc2c(C)nn(C)c2C(c2ccccc2)S1 (stereo unspecified)
inactive: dose: 100.0 mg/kg/injection, schedule: Q04DX002 (ip), vehicle: saline with Tween-80 100 % of control and 112 % of control | [3] 97 % of control and 101 % of control | dose: 200.0 mg/kg/injection, schedule: Q04DX002 (ip), vehicle: saline with Tween-80 104 % of control and 89 % of control | [4] 96 % of control and 100 % of control | dose: 400.0 mg/kg/injection, schedule: Q04DX002 (ip), vehicle: saline with Tween-80 94 % of control and 104 % of control | [5] 96 % of control and 100 % of control

O=NN(CCCl)C(=O)NC1CCCCCCCCCCC1
inactive: dose: 2.5 mg/kg/injection, schedule: Q01DX001 (ip), vehicle: carboxymethylcellulose (CMC) 114 % of control | dose: 5.0 mg/kg/injection, schedule: Q01DX001 (ip), vehicle: carboxymethylcellulose (CMC) 120 % of control | dose: 8.0 mg/kg/injection, schedule: Q01DX001 (ip), vehicle: carboxymethylcellulose (CMC) 123 % of control | dose: 12.0 mg/kg/injection, schedule: Q01DX001 (ip), vehicle: carboxymethylcellulose (CMC) 121 % of control | dose: 2000.0 mg/kg/injection, schedule: Q01DX001 (ip), vehicle: other 91 % of control
active: dose: 187.0 mg/kg/injection, schedule: Q01DX001 (ip), vehicle: carboxymethylcellulose (CMC) 166 % of control | dose: 250.0 mg/kg/injection, schedule: Q01DX001 (ip), vehicle: carboxymethylcellulose (CMC) 153 % of control | dose: 375.0 mg/kg/injection, schedule: Q01DX001 (ip), vehicle: carboxymethylcellulose (CMC) 160 % of control | dose: 500.0 mg/kg/injection, schedule: Q01DX001 (ip), vehicle: carboxymethylcellulose (CMC) 174 % of control | dose: 555.0 mg/kg/injection, schedule: Q01DX001 (ip), vehicle: other 172 % of control | dose: 596.0 mg/kg/injection, schedule: Q01DX001 (ip), vehicle: other 155 % of control | dose: 750.0 mg/kg/injection, schedule: Q01DX001 (ip), vehicle: carboxymethylcellulose (CMC) 233 % of control | dose: 838.0 mg/kg/injection, schedule: Q01DX001 (ip), vehicle: other 221 % of control | dose: 1000.0 mg/kg/injection, schedule: Q01DX001 (ip), vehicle: carboxymethylcellulose (CMC) 247 % of control | dose: 1192.0 mg/kg/injection, schedule: Q01DX001 (ip), vehicle: other 185 % of control | dose: 1250.0 mg/kg/injection, schedule: Q01DX001 (ip), vehicle: other 274 % of control | dose: 1500.0 mg/kg/injection, schedule: Q01DX001 (ip), vehicle: other 167 % of control | dose: 1875.0 mg/kg/injection, schedule: Q01DX001 (ip), vehicle: other 261 % of control | dose: 2384.0 mg/kg/injection, schedule: Q01DX001 (ip), vehicle: other 178 % of control

CCN(CC)c1cccc(OC(=O)Nc2ccc(SC)cc2)c1
inactive: [6] 95 % of control | [7] 103 % of control | [8] 97 % of control

CC(=O)c1ccc(Cl)cc1
inactive: dose: 100.0 mg/kg/injection, schedule: Q01DX001 (ip), vehicle: carboxymethylcellulose (CMC) 91 % of control | dose: 200.0 mg/kg/injection, schedule: Q01DX001 (ip), vehicle: carboxymethylcellulose (CMC) 91 % of control | dose: 400.0 mg/kg/injection, schedule: Q01DX001 (ip), vehicle: carboxymethylcellulose (CMC) 97 % of control

O=CC(O)C(O)C(O)C(O)COC(=S)OCC(O)C(O)C(O)C(O)C=O (stereo unspecified) (tested in a mixture with another compound)
inactive: dose: 100.0 mg/kg/injection, schedule: Q04DX002 (ip), vehicle: saline 110 % of control | dose: 200.0 mg/kg/injection, schedule: Q04DX002 (ip), vehicle: saline 100 % of control | dose: 400.0 mg/kg/injection, schedule: Q04DX002 (ip), vehicle: saline 95 % of control

COC(=O)C(=O)CC(=O)c1ccc(C)cc1
inactive: dose: 100.0 mg/kg/injection, schedule: Q04DX002 (ip), vehicle: Klucel (hydroxypropylcellulose) (HPC) 103 % of control | dose: 200.0 mg/kg/injection, schedule: Q04DX002 (ip), vehicle: Klucel (hydroxypropylcellulose) (HPC) 95 % of control | dose: 400.0 mg/kg/injection, schedule: Q04DX002 (ip), vehicle: Klucel (hydroxypropylcellulose) (HPC) 106 % of control

CC(=O)OC1C(=O)C(O)C(C)OC1O[C@@H]1C[C@@]2(C)[C@@H]3CC=C4[C@@H](C[C@H](O)C(=O)C4(C)C)[C@]3(C)C(=O)C[C@]2(C)[C@H]1[C@@](C)(O)C(=O)/C=C/C(C)(C)O (stereo partly specified)
inactive: dose: 0.33 mg/kg/injection, schedule: Q01DX009 (ip), vehicle: saline 113 % of control | dose: 0.6 mg/kg/injection, schedule: Q01DX009 (ip), vehicle: saline 106 % of control | dose: 0.67 mg/kg/injection, schedule: Q01DX009 (ip), vehicle: saline 112 % of control | dose: 1.0 mg/kg/injection, schedule: Q01DX009 (ip), vehicle: saline 108 % of control | dose: 1.25 mg/kg/injection, schedule: Q01DX009 (ip), vehicle: saline 120 % of control | dose: 1.5 mg/kg/injection, schedule: Q01DX009 (ip), vehicle: saline 101 % of control | dose: 2.5 mg/kg/injection, schedule: Q01DX009 (ip), vehicle: saline 97 % of control

COc1ccc(C(CCl)(CCl)c2ccc(OC)c(C)c2)cc1C
inactive: [6] 90 % of control | [3] 100 % of control | [7] 96 % of control | [4] 94 % of control | [8] 86 % of control | [5] 92 % of control

CCN(CC)CCOC(=O)c1[nH]cnc1/N=N\N(C)C
inactive: [1] 104 % of control | [2] 98 % of control

CC(=O)N(C)C
inactive: dose: 62.5 mg/kg/injection, schedule: Q01DX010 (ip), vehicle: saline 94 % of control and 97 % of control | dose: 125.0 mg/kg/injection, schedule: Q01DX010 (ip), vehicle: saline 105 % of control and 91 % of control | dose: 250.0 mg/kg/injection, schedule: Q01DX010 (ip), vehicle: saline 103 % of control and 91 % of control | dose: 500.0 mg/kg/injection, schedule: Q01DX001 (ip), vehicle: saline 101 % of control | dose: 500.0 mg/kg/injection, schedule: Q01DX010 (ip), vehicle: saline 100 % of control and 89 % of control | dose: 900.0 mg/kg/injection, schedule: Q01DX Z (ip), vehicle: other 106 % of control | dose: 1000.0 mg/kg/injection, schedule: Q01DX001 (ip), vehicle: saline 100 % of control | dose: 2000.0 mg/kg/injection, schedule: Q01DX001 (ip), vehicle: saline 97 % of control | dose: 3000.0 mg/kg/injection, schedule: Q01DX Z (ip), vehicle: other 87 % of control

OC(c1ccccc1)(c1ccccc1)c1ccsc1
inactive: dose: 50.0 mg/kg/injection, schedule: Q01DX009 (ip), vehicle: saline with Tween-80 86 % of control | [6] 86 % of control

NNc1nnc(-c2ccccc2)c2ccccc12
inactive: dose: 15.0 mg/kg/injection, schedule: Q01DX001 (ip), vehicle: carboxymethylcellulose (CMC) 95 % of control | dose: 30.0 mg/kg/injection, schedule: Q01DX001 (ip), vehicle: carboxymethylcellulose (CMC) 101 % of control | dose: 60.0 mg/kg/injection, schedule: Q01DX001 (ip), vehicle: carboxymethylcellulose (CMC) 100 % of control

C/C=C/c1ccccc1C(C)=O
inactive: dose: 100.0 mg/kg/injection, schedule: Q04DX003 (sc), vehicle: olive oil, sesame oil, peanut oil 105 % of control | dose: 200.0 mg/kg/injection, schedule: Q04DX003 (sc), vehicle: olive oil, sesame oil, peanut oil 105 % of control | dose: 400.0 mg/kg/injection, schedule: Q04DX003 (sc), vehicle: olive oil, sesame oil, peanut oil 100 % of control

CSc1n[nH]c(=O)nc1SC
inactive: [1] 104 % of control | [2] 96 % of control

COc1ccc([N+](=O)[O-])cc1NC(=O)N/N=C(\C)C(C)(C)C
inactive: dose: 100.0 mg/kg/injection, schedule: Q01DX009 (ip), vehicle: Klucel (hydroxypropylcellulose) (HPC) 94 % of control | dose: 200.0 mg/kg/injection, schedule: Q01DX009 (ip), vehicle: Klucel (hydroxypropylcellulose) (HPC) 102 % of control | dose: 400.0 mg/kg/injection, schedule: Q01DX009 (ip), vehicle: Klucel (hydroxypropylcellulose) (HPC) 86 % of control

NCc1cccc(OCCOc2ccccc2)c1
inactive: dose: 100.0 mg/kg/injection, schedule: Q01DX001 (ip), vehicle: saline with Tween-80 102 % of control | dose: 200.0 mg/kg/injection, schedule: Q01DX001 (ip), vehicle: saline with Tween-80 97 % of control | dose: 400.0 mg/kg/injection, schedule: Q01DX001 (ip), vehicle: saline with Tween-80 103 % of control
